US9610264B2, “Compounds for the treatment and prevention of retroviral infections” (KFLP Biotech, LLC, priority 2012, dated 2017)

Legend:
[1] = biological target: binding of HIV associated glycoprotein gp120 and the integrin α4β7 (Homo sapiens (Human), UniProt P13612+P26010); assay: ELISA assay of gp120 binding to integrin α4β7; set-up: species or system human (α4β7); HIV-1 ADA strain (gp120); conditions: inhibition of gp120/α4β7 binding, triplicate with two anti-gp120 antibodies, read-out: IC50 a4b7
Chain of binding of HIV associated glycoprotein gp120 and the integrin α4β7 (P13612 whole entry, looked up): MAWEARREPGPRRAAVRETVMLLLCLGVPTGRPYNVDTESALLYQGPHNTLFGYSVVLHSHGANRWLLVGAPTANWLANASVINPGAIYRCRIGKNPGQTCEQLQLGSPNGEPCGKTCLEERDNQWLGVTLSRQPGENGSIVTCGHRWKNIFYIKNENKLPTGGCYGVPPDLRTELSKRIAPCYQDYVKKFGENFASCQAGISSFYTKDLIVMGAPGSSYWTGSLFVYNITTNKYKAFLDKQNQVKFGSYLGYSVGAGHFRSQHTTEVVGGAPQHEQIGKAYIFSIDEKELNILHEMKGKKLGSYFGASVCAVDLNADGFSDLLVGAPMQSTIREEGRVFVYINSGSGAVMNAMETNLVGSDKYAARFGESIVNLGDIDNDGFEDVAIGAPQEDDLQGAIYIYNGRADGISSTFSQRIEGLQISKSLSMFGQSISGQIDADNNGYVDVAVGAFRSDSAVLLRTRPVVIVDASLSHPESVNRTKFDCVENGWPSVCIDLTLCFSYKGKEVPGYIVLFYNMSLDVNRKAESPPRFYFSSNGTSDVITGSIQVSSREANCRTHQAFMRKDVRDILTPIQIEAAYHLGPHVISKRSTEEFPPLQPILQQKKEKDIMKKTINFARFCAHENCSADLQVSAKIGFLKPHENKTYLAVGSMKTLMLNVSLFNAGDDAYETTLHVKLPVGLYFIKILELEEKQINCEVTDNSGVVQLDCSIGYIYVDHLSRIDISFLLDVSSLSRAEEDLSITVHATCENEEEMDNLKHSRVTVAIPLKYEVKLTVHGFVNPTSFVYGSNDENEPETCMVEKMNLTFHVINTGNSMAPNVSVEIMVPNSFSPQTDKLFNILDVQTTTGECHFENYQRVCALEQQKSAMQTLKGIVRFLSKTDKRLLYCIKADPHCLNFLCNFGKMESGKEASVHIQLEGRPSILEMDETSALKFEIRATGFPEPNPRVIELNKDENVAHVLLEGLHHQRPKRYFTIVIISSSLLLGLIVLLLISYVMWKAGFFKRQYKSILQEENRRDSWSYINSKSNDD
Chain of binding of HIV associated glycoprotein gp120 and the integrin α4β7 (P26010 whole entry, looked up): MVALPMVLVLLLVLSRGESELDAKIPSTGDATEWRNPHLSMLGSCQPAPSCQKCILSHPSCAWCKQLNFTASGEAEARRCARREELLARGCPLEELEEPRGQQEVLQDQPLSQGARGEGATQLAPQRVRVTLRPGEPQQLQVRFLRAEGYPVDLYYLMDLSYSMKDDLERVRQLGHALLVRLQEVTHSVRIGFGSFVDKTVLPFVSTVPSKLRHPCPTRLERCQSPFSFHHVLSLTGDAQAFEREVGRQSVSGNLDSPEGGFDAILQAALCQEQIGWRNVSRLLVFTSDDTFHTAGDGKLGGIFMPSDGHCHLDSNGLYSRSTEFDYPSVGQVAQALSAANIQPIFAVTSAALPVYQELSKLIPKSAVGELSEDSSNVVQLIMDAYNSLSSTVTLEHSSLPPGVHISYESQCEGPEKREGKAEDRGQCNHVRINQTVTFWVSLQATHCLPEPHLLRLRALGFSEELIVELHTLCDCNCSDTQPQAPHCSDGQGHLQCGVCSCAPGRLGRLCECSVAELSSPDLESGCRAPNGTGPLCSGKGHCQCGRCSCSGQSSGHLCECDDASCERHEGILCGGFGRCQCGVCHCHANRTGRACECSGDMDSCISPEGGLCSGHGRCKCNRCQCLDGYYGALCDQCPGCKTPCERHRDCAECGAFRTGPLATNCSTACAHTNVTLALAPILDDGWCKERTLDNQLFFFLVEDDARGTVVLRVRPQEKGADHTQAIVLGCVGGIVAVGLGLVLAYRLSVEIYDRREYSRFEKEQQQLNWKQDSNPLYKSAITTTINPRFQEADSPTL
Description: A sandwich assay was developed to screen for compounds that inhibit the binding of a4b7 to gp120. Without inhibitors, gp120 and a4b7 bind and this complex can be identified by addition of a mouse anti-gp120 mAb (step 3). This a4b7*gp120anti-gp120 mAb complex is then sequestered on the bottom surface of a 96 welled-plate coated with an anti-mouse secondary mAb (step 4). The complex is then detected by addition of a biotinylated primary mAb against a4b7 (step 5) and detected using an HRP-avidin (step 6). A positive binding event is identified by the presence of HPR activity within each well. The addition of an inhibitor (step 2) blocks the binding between gp120 and a4b7 leading to a lack or reduction of HRP activity as shown in steps 2-5 at the bottom of the figure.
Step 1: Prepare the antigen plate • a. Prepare a PBS stock solution containing 1 μM gp120 and 1 μM α4β7 • b. Add a 200 μL aliquot to each well of the antigen plate.
Step 2: Add the inhibitor. • a. Add 20 μL of a 10× stock of the inhibitor in PBS pH 7.2 containing 1% DMSO • b. Incubate at 4° C. for 6 h with shaking. This delivers the antigen plate.
Step 3: Prepare the binding plate. • a. Aspirate each well of the binding plate • b. Wash three times with 200 μL of wash buffer (PBS pH 7.2, containing 0.05% Tween 20). • c. Add 100 μL of a 0.5 μg/mL stock of the mouse anti-gp120 mAb in PBS pH 7.2 • d. Shake for 1 h at 23° C.
Step 4: Sequester the gp120*α4β7 complex. • a. Aspirate each well of the binding plate. • b. Wash three times with 200 μL of wash buffer. • c. Transfer the contents of the antigen plate to the corresponding wells in the binding plate. • d. Shake for 1 h at 23° C.
Step 5: Develop the binding plate. • a. Aspirate each well of the binding plate. • b. Wash three times with 200 μL of wash buffer. • c. Add 100 μL of a 0.1 μg/mL of the rat anti-α4β7 mAb. • d. Shake for 1 h at 37° C. • e. Aspirate each well of the binding plate. • f. Wash three times with 200 μL of wash buffer. • g. Add 100 μL of 0.2 μg/mL solution of the HRP-conjugated strepavidin • h. Shake for 1 h at 37° C. • i. Aspirate each well of the binding plate. • j. Wash three times with 200 μL of wash buffer. • k. Develop using QuantaBlu fluorogenic peroxidase substrate (ThermoScientific) • l. Evaluate the fluorescence output on a HTS7000 plate reader (Perkin Elmer).
The ELISA assay was applied to screen the compounds in the table, below, to further characterize their activity against the binding of HIV associated glycoprotein gp120 and the integrin α4β7.
The five-step assay developed was applied to screen the compounds in the table below. […] The experiments were run in triplicate using two antibodies against gp120.

[2] = tested on: HIV-1 R9 (CXCR4-tropic strain); assay: Infectivity assay in HeLa reporter cell line (HeLa-CD4-Bgal); type: cell-based; conditions: HeLa reporter cells, HIV-1 R9, 36 h
Procedure: FIG. 2: Experimental outline to evaluate HIV infectivity in a HeLa reporter cell line HIV-1 particles are produced in 293T cells transfected with R9 HIV DNA in the absence of test compounds. Particles are collected, titrated by measuring the amount of p24 antigen and frozen until their use. In the infectivity assay HeLa-CD4-Bgal cells are preincubated for 20 min in the absence or presence of test compounds, and the viral particles are added. Infectivity is monitored with a beta-galactosidase enzymatic reaction 36 hours after infection. Test compounds and virus are left with the cells throughout the entire infection period.
Compounds were evaluated with a HeLa reporter cell line containing the bacterial b-galactosidase gene inserted in the cell chromosome under control of the viral LTR. […] HIV-1 R9 (CXCR4-tropic strain) was used in these experiments to challenge cells. Viruses were first produced by transfection of 293T cells with a plasmid DNA expressing HIV-1. Viral particles were harvested and frozen until use. Infectivity assays were performed incubating cells in the absence or presence of compounds for 20 min before addition of virus. Upon infection, virus and compounds were left with the cells for the entire period of infection (36 h). At that time the extent of infection was evaluated using a luminescent substrate of Bgal. FIG. 2 depicts the experimental outline used to evaluate the anti-HIV activity of lead compounds. Controls with known ARVs include AZT, a reverse-transcriptase inhibitor (RTI), and the HIV integrase inhibitor raltegravir. Controls with vehicle alone are also included

HIV-1-LAI strain = assay: Antiviral assay in PHA-P-activated PBMC, RT activity in supernatants; type: cell-based; conditions: day 7 RT activity
Procedure: Phytohemagglutinin (PHA)-P-activated PBMC were infected with the reference lymphotropic HIV-1-LAI strain (Wain-Hobson et al., Science, vol. 252, no. 5008, pp. 961-965 (1991)). This virus was amplified in vitro with PHA-P-activated blood mononuclear cells. Viral stocks were titrated using PHA-P-activated PBMC, and 50% tissue culture infectious doses (TCID50) was calculated using Karber's formula. PBMC were pretreated for 30 min by two concentrations of each molecule and infected with 125 TCID50 of this HIV-1 strain. AZT and T20 were used as reference anti-HIV molecule. Molecules were maintained throughout the culture, and cell supernatants were collected at day 7 post-infection and stored at −20° C. Viral replication was measured by quantifying reverse transcriptase (RT) activity in these cell culture supernatants using the Lenti RT activity kit (Cavidi). In parallel, cytotoxicity was evaluated on day 7 in uninfected PHA-P-activated PBMC using the colorimetric methyl-tetrazolium salt assay (MTS/PMS; Promega). Experiments were performed in triplicate and the inhibition of viral replication of the compounds was calculated using SoftMaxPro software (Molecular Devices Inc. CA, USA).
Dilutions in Cell Culture Medium Containing 0.1% DMSO (Final Concentration)

Compound: CC(NC(=O)c1ccccc1NC(=O)CN1C(=O)NC(Cc2ccccc2)C1=O)c1ccccc1 (stereo not drawn) [Compound 15]
- IC50 [1]: 2.8 nM

Compound: Cc1ccc(CNC(=O)c2ccccc2NC(=O)CN2CCN(C(C)C(=O)NC3CC3)CC2)cc1 (stereo not drawn) [Compound 6]
- IC50 [1]: 0.61 nM

Compound: Cc1ccc(CNC(=O)c2ccccc2NC(=O)CN2CCc3ccccc32)cc1 [Compound 3]
- IC50 [1]: 19.2 nM
- Inhibition of HIV infectivity in % ([2]; 0.008 μM): 67.64%
- Inhibition of HIV infectivity in % ([2]; 0.04 μM): 58.63%
- Inhibition of HIV infectivity in % ([2]; 0.2 μM): 61.6%
- Inhibition of HIV infectivity in % ([2]; 1 μM): 42.22%
- Inhibition of HIV infectivity in % ([2]; 5 μM): 12.81%
- Inhibition of HIV infectivity in % ([2]; 25 μM): 2.39%
- Inhibition of HIV infectivity in % ([2]; 125 μM): 0.19%
- EC50 [2]: 1690 nM
- EC90 [2]: 15200 nM

Compound: enfuvirtide
- inhibition of viral replication (HIV-1-LAI strain; 0.32 nM): −9% ± 3
- inhibition of viral replication (HIV-1-LAI strain; 1.6 nM): 5% ± 15
- inhibition of viral replication (HIV-1-LAI strain; 8 nM): −13% ± 4
- inhibition of viral replication (HIV-1-LAI strain; 40 nM): 100% ± 0
- inhibition of viral replication (HIV-1-LAI strain; 200 nM): 100% ± 0
- inhibition of viral replication (HIV-1-LAI strain; 1000 nM): 100% ± 0
- ED50 (HIV-1-LAI strain): 28.9 nM
- ED70 (HIV-1-LAI strain): 30 nM
- ED90 (HIV-1-LAI strain): 31.7 nM

Compound: O=C(CN1CCN(Cc2ccsc2)CC1)Nc1ccccc1C(=O)NCc1ccccc1 [Compound 4]
- IC50 [1]: 0.27 nM

Compound: CC1CCCCN1CC(=O)Nc1ccccc1C(=O)NCc1ccccc1 (stereo not drawn) [Compound 9]
- IC50 [1]: 1.23 nM

Compound: CCC(=O)Nc1cccc(C(=O)Nc2ccccc2C(=O)NCc2ccc(C)cc2)c1 [Compound 12]
- IC50 [1]: 2.19 nM

Compound: CC(NC(=O)c1ccccc1NC(=O)CN1C(=O)C(=O)N(Cc2ccccc2)C1=O)c1ccccc1 (stereo not drawn) [Compound 5]
- IC50 [1]: 0.64 nM

Compound: CC1(c2ccc(F)cc2)NC(=O)N(CC(=O)Nc2ccccc2C(=O)NCc2ccccc2)C1=O (stereo not drawn) [Compound 7]
- IC50 [1]: 0.46 nM

Compound: CC(NC(=O)c1ccccc1NC(=O)CN1CCc2ccccc21)c1ccccc1 (stereo not drawn) [Compound 13]
- IC50 [1]: 2.45 nM

Compound: Cc1cn([C@H]2C[C@H](N=[N+]=[N-])[C@@H](CO)O2)c(=O)[nH]c1=O [AZT, Zidovudine]
- inhibition at 0.00032 µM (HIV-1-LAI strain; Human immunodeficiency virus 1, 168 h, 0.32 nM, read-out: inhibition of viral replication): 16%
- inhibition at 0.0016 µM (HIV-1-LAI strain; Human immunodeficiency virus 1, 168 h, 1.6 nM, read-out: inhibition of viral replication): 59%
- inhibition at 0.008 µM (HIV-1-LAI strain; Human immunodeficiency virus 1, 168 h, 8 nM, read-out: inhibition of viral replication): 95%
- inhibition at 0.04 µM (HIV-1-LAI strain; Human immunodeficiency virus 1, 168 h, 40 nM, read-out: inhibition of viral replication): 100%
- inhibition at 0.2 µM (HIV-1-LAI strain; Human immunodeficiency virus 1, 168 h, 200 nM, read-out: inhibition of viral replication): 100%
- inhibition at 1 µM (HIV-1-LAI strain; Human immunodeficiency virus 1, 168 h, 1000 nM, read-out: inhibition of viral replication): 100%
- ED50 (HIV-1-LAI strain): 1.3 nM
- ED70 (HIV-1-LAI strain): 2.5 nM
- ED90 (HIV-1-LAI strain): 6.6 nM

Compound: O=C(Cc1ccc(F)cc1)Nc1ccccc1C(=O)NCc1ccccc1 [Compound 2]
- IC50 [1]: 0.89 nM
- inhibition of viral replication (HIV-1-LAI strain; 3.2 nM): 16% ± 4^
- inhibition of viral replication (HIV-1-LAI strain; 16 nM): −6% ± 22^
- inhibition of viral replication (HIV-1-LAI strain; 80 nM): 4% ± 8
- inhibition of viral replication (HIV-1-LAI strain; 400 nM): 6% ± 16
- inhibition of viral replication (HIV-1-LAI strain; 2000 nM): 22% ± 3^
- inhibition of viral replication (HIV-1-LAI strain; 10000 nM): 87% ± 9^
- ED50 (HIV-1-LAI strain): 5590 ± 441 nM
- ED70 (HIV-1-LAI strain): 8021 ± 710 nM
- ED90 (HIV-1-LAI strain): 9826 ± 246 nM
- Inhibition of HIV infectivity in % ([2]; 0.008 μM): 69.28%
- Inhibition of HIV infectivity in % ([2]; 0.04 μM): 51.94%
- Inhibition of HIV infectivity in % ([2]; 0.2 μM): 62.3%
- Inhibition of HIV infectivity in % ([2]; 1 μM): 60.66%
- Inhibition of HIV infectivity in % ([2]; 5 μM): 13.81%
- Inhibition of HIV infectivity in % ([2]; 25 μM): 2.76%
- Inhibition of HIV infectivity in % ([2]; 125 μM): 4.1%
- EC50 [2]: 3400 nM
- EC90 [2]: 30600 nM

Compound: O=C(CCc1ccccc1)Nc1ccccc1C(=O)NCc1ccccc1 [Compound 1]
- IC50 [1]: 0.33 nM

Compound: O=C(Nc1ccccc1C(=O)NCc1ccccc1)c1cccc([N+](=O)[O-])c1 [Compound 10]
- IC50 [1]: 1.53 nM
